Data taken from PMC10953480 (RSC Medicinal Chemistry, 2024).

Assays:
Cos-7 cells = test: Cytotoxicity to Cos-7 cells; format: cell-based, African green monkey (Cercopithecus aethiops)
CaV2.2 = conditions: read-out: CaV2.2 IC50; whole-cell patch clamp; cited from earlier work

**Q.** Which “concentration up to which well tolerated by Cos-7 cells” value (Cos-7 cells) does the source give for `CN(C)CCCOc1ccc(C(=O)Nc2ccccc2Oc2ccccc2)cc1` [7b] here?
**A.** ≤ 100 µM

**Q.** With `NC(N)=NCCCOc1ccc(C(=O)Nc2ccccc2Oc2ccc(F)cc2)cc1` [MONIRO-1 6a] as the compound, how does the IC50 (CaV2.2) read?
**A.** 34 µM
